{
  "source": "the Kinase Knowledgebase extract (Sharma et al. 2016)",
  "key": {"MAPK14 (human)": {"target": "MAPK14 (human) (UniProt Q16539)", "sequence (Q16539 whole entry, looked up)": "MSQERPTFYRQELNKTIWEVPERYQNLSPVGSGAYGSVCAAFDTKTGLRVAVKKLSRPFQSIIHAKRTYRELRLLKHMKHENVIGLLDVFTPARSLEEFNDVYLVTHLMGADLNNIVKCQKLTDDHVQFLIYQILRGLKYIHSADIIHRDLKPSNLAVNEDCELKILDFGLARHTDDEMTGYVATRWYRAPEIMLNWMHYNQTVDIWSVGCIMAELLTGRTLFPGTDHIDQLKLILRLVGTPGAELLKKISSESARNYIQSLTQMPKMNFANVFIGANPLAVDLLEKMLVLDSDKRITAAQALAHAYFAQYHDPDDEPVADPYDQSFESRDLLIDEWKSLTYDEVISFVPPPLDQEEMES", "test": "Inhibition of LPS-Induced TNF-alpha Production in Human Peripheral Blood Mononuclear Cell", "conditions": "pbmc"}, "MAPK14 (mice)": {"system": "MAPK14 (mice)", "test": "Inhibition of LPS-Induced TNF-alpha Production in Mice", "conditions": "dose or concentration not given here"}, "MAPK14": {"target": "MAPK14 (UniProt Q16539)", "sequence (Q16539 whole entry, looked up)": "as above", "test": "Inhibition of MAPK14 Kinase Activity"}},
  "data": [
    {"compound": "C[C@H](Nc1nccc(-c2c(-c3ccccc3)nc3nc(N)ccn23)n1)c1ccccc1", "values": [
      {"measurement": "IC50", "setting": "MAPK14 (human)", "result": 0.6, "unit": "nM"},
      {"measurement": "inhibition", "setting": "MAPK14 (mice)", "result": 100, "unit": "%"}
    ]},
    {"compound": "Nc1ccn2c(-c3ccnc(N[C@H]4CCCc5ccccc54)c3)c(-c3ccccc3)nc2n1", "values": [
      {"measurement": "IC50", "setting": "MAPK14 (human)", "result": 3, "unit": "nM"}
    ]},
    {"compound": "Fc1ccc(-c2[nH]c3ccc4[nH]c(Cc5ccccc5)nc4c3c2-c2ccncc2)cc1", "values": [
      {"measurement": "IC50", "setting": "MAPK14 (human)", "result": 60, "unit": "nM"}
    ]},
    {"compound": "C[C@@H](Nc1nccc(-c2c(-c3ccccc3)nc3nc(N)ccn23)n1)c1ccccc1", "values": [
      {"measurement": "IC50", "setting": "MAPK14 (human)", "result": 2.3, "unit": "nM"}
    ]},
    {"compound": "Nc1ccn2c(-c3ccncc3)c(-c3ccc(F)cc3)nc2n1", "values": [
      {"measurement": "IC50", "setting": "MAPK14 (human)", "result": 40, "unit": "nM"}
    ]},
    {"compound": "COC[C@H](C)Nc1cc(-c2c(-c3ccccc3)nc3nc(N)ccn23)ccn1", "values": [
      {"measurement": "IC50", "setting": "MAPK14 (human)", "result": 0.5, "unit": "nM"}
    ]},
    {"compound": "C[C@H](Nc1cc(-c2c(-c3ccc(F)cc3)nc3nc(N)ccn23)ccn1)c1ccccc1", "values": [
      {"measurement": "IC50", "setting": "MAPK14", "result": 1, "unit": "nM"},
      {"measurement": "IC50", "setting": "MAPK14 (human)", "result": 2, "unit": "nM"}
    ]}
  ]
}
